{"source": "paper PMC12624743", "about": "(ACS Infectious Diseases, 2025)", "key": {"[1]": {"tested_on": "N. gonorrhoeae FA1090 (ATCC 700825)", "test": "MIC by agar dilution, parental strain FA1090", "type": "cell-based", "settings": "Neisseria gonorrhoeae, ATCC700825, parental strain FA1090, GyrA WT / ParC WT", "description": "A series of isogenic N. gonorrhoeae strains was constructed that carried the specific target mutations GyrA^A92T or GyrA^D90N either alone or in combination with ParC^D86N or GyrA^S91F/D95G in a ciprofloxacin-susceptible strain, FA1090 (ATCC 700825).\nAll N. gonorrhoeae isolates were cultured and grown on GC agar plates or in fastidious broth (Remel, 07664). Minimum inhibitory concentration (MIC) of test compounds was determined by an agar dilution method, the reference testing method for N. gonorrhoeae according to the standards of the Clinical and Laboratory Standards Institute and the CDC. MIC values were determined after incubation at 37 °C for 48 h in 5% CO2."}, "[2]": {"tested_on": "N. gonorrhoeae FA1090-Q1 (GyrA^S91F/D95G, ParC WT)", "test": "MIC by agar dilution, fluoroquinolone-resistant GyrA^S91F/D95G strain", "type": "cell-based", "settings": "Neisseria gonorrhoeae", "description": "Minimum inhibitory concentration (MIC) of test compounds was determined by an agar dilution method, the reference testing method for N. gonorrhoeae according to the standards of the Clinical and Laboratory Standards Institute and the CDC."}}, "data": [{"smiles": "O=C(O)c1cn(C2CC2)c2cc(N3CCNCC3)c(F)cc2c1=O", "note": "[ciprofloxacin]", "values": [{"measurement": "MIC", "setting": "[1]", "value": 0.004, "unit": "µg/mL"}, {"measurement": "MIC", "setting": "[2]", "value": 0.25, "unit": "µg/mL"}]}]}
